From patent publication US20240182456A1, “2-((4-((S)-2-(4-CHLORO-2-FLUOROPHENYL)-2-METHYLBENZO[D][1,3]DIOXOL-4-YL)PIPERIDIN-1-YL)METHYL)-1-(((S)-OXETAN-2-YL)METHYL)-1H-IMIDAZOLE DERIVATIVES AS ACTIVATORS OF THE GLP1 RECEPTOR FOR THE TREATMENT OF OBESITY” (Novartis AG, priority 2021, published 2024)
Like-named read-outs stand apart in the source and are kept apart here.

Tests used:
[1] = biological target: human GLP1R (hGLP1R) (Homo sapiens, UniProt P43220); assay: Human GLP1R cAMP agonist assay (GloSensor); format: cell-based; details: for Emax: read-out: Emax mean; for EC50: intracellular cAMP, mean n=3 where SEM is given
Method: (§1) Compounds 1 to 31 were tested in the following cellular assays that measure the intracellular cAMP concentration, beta-arrestin recruitment and receptor internalization. The cAMP is generated by the activation of GLP1R. The cAMP data obtained is shown in Table 1 (where S.E.M. is included, mean n=3 independent experiments+/−S.E.M). Beta-arrestin is recruited upon activation of GLP1R and the data obtained are shown in Table 2 (mean n=2 independent experiments, +/−S.D). The extent to which the GLP1R is internalized into the cell and away from the plasma membrane following activation is also shown in Table 2 (mean n=2 independent experiments, +/−S.D). EC50 for each assay is defined as the concentration of the compound that leads to half of the maximum response (after baseline correction). Emax is defined as the maximum response observed for the test compound, normalized to the maximum response observed for the endogenous ligand (GLP1(7-36)) to GLP1R.
Human GLP1R cAMP Agonist Assay
The agonist activity of compounds was determined using the GloSensor™ cAMP Assay (Promega Corp.), which measures changes in the intracellular concentration of cAMP after ligand activation of GPCRs. The assay uses a biosensor encoded by pGloSensor™-22F cAMP plasmid (Promega, cat #E2301) with cAMP binding domains fused to a mutant form of Photinus pyralis luciferase. Binding to cAMP causes conformational changes that promote large increases in light output, which can be measured by a luminescence detector. HEK293-SNAP-hGLP1R-GloSensor cells stably overexpressing the human GLP1 receptor (hGLP1R) and pGloSensor™-22F were seeded in white 384-well poly-D-Lysine coated plates (Greiner Bio One, cat #781945) in CO2-independent media (Gibco cat #18045-088 with 1.0% FBS, 2 mM L-glutamine, penicillin and streptomycin) and incubated overnight at 37° C., 5% CO2 with humidity. The assay was started the following morning by adding an equal volume of CO2-independent media containing 4% v/v dilution of the GloSensor substrate (Promega, cat #E1291) to all wells. The cell plate was incubated at rt for 2 h in the dark. The Biomek 7 (Beckman Coulter) instrument was used for the liquid handling steps. To generate duplicate dose response curves, 3-fold serially diluted compounds were added in to the cell assay plate to a final volume of 60 μL with final concentrations ranging from 30 μM through 0.06 μM in CO2-independent media containing 0.1% BSA, 0.5 mM IBMX and 0.4% DMSO. In the same plate and assay buffer as the tested compounds, were EC100 control wells containing GLP1 (7-36) peptide (Bachem, cat #H-6795) at a final concentration of 2 nM and also EC0 control wells containing no peptide. This plate was incubated at rt in the dark for 12 min after adding the compounds to the cells. Luminescence was then measured with an Envision 2104 Multilabel reader with “TRF Light Unit, 337 nm” (PerkinElmer) using the Ultra-Sensitive protocol setting “384-well US luminescence detector” with the 384-well luminescence aperture, 0.1 seconds per well. cAMP activity was calculated as percent of the GLP1 (7-36) EC100 control wells: [(sample signal−mean EC0 signal)/(mean EC100 of GLP1 (7-36) signal−mean EC0 signal)}*100. Curve fitting for EC50 determinations was performed in the Helios module of the software package DAVID. The 4-parameter logistic model, Hill slope was used: y=Ainf+(A0−Ainf)/(1+(x/AC50)^Hill Slope) where y is the functional response; x is the compound concentration; A0 is the minimum value (at 0 dose); Ainf is the maximum value (at infinite dose); AC50 corresponds to the point of inflection (i.e. the point on the sigmoid shaped curve halfway between A0 and Ainf). The EC50 value was represented by the AC50 value calculated from Helios in μM. Emax is the maximal activity detected within the concentration range, derived from the fitted curve. […]

[2] = biological target: human GLP1R (Homo sapiens, UniProt P43220); assay: Human GLP1R DERET internalization assay; format: cell-based; details: HEK293-SNAP-hGLP1R-GloSensor cells; for EC50: mean n=2; for Emax: relative to GLP1(7-36)
Method: as §1
The extent to which agonists internalize the human GLP1R was determined based on an optimized version of a RealTime FRET-based ‘DERET’ (Dissociation Enhanced Resonance Energy Transfer) assay. The technology relies on labeling of the SNAP-tagged GPCR with a SNAP-Lumi-Terbium (donor fluorophore, Cisbio, cat #SSNPTBD). The compounds are incubated with the cells over-expressing the GPCR of interest in the presence of an excess of fluorescein (acceptor fluorophore). When the GPCR is on the cell surface, the donor signal is quenched by the acceptor and the donor/acceptor ratio is low. As the GPCR internalizes, the donor signal is no longer quenched, and the acceptor is no longer excited so the donor/acceptor ratio increases.
HEK293-SNAP-hGLP1R-GloSensor cells (stably overexpressing SNAP-tagged hGLP1R) were seeded overnight in white 384-well poly-D-Lysine coated plates (Greiner Bio One, cat #781945) in regular DMEM growth medium (Gibco, cat #11965-092, 10% heat-inactivated FBS, 10 mM HEPES, 1× penicillin/streptomycin, 0.5 mg/mL geneticin (Gibco, cat #10131-035) and 0.25 mg/mL hygromycin B (Invitrogen, cat #10687010). On the assay day, cell medium was removed and 100 nM SNAP-Lumi-Tb reagent was added in Opti-MEM solution. The cells were incubated at 37° C. for 1 h. Cells were washed using a plate washer in assay buffer [1×HBSS (10× Gibco, cat #14065-056), 20 mM Hepes (Gibco, cat #15630-080), 1 mM CaCl2 (Fluka, cat #21114-1L), 1 mM MgCl2 (Ambion, cat #AM9530G) pH7.4], and 20 μL buffer with 0.1% BSA was added to each well. After leaving cells to equilibrate for ˜15 min at 37° C., 10 μL of Fluorescein (sodium salt, Sigma, cat #F6377, diluted in buffer) was added at 25 μM final concentration. To generate triplicate dose response curves, compounds were serially diluted 3-fold in assay buffer, then added to the cell assay plate to a final volume of 40 μL and final top concentrations starting at 30 μM. In the same plate and assay buffer as the tested compounds, a GLP1 (7-36) peptide (Bachem, cat #H-6795) control curve was included at a final top concentration of 1 μM in order to establish EC100. EC0 wells with buffer only were also included. The plate FRET fluorescence was measured immediately using a Perkin Elmer Envision with LANCE/DELFIA D400 single mirror, excitation filter X320, and emission filters M615_203 (donor emission) and M515 (acceptor emission), and then measured every 30 min. […] Plates were kept at 37° C. between reads. Data was expressed as the ratio of donor/acceptor emissions using Microsoft Excel and plotted in GraphPad Prism. In order to determine EC50 and Emax for internalization, data was calculated and expressed as percent of the GLP1 (7-36) EC100 control wells: [(sample signal−mean EC0 signal)/(mean EC100 of GLP1 (7-36) signal−mean EC0 signal)]*100 using Microsoft Excel. Curve fitting for EC50 determinations was performed using GraphPad Prism. The 4-parameter logistic model, Hill slope was used:
Y=Bottom+(Top−Bottom)/(1+10^((Log EC50−X)*Hill Slope)), […]

[3] = HEK293-SNAP-hGLP1R-GloSensor cells, cAMP, normalized to GLP1(7-36) maximum response
[4] = HEK293-SNAP-hGLP1R-GloSensor cells

Chain of human GLP1R (hGLP1R) (P43220 24-463): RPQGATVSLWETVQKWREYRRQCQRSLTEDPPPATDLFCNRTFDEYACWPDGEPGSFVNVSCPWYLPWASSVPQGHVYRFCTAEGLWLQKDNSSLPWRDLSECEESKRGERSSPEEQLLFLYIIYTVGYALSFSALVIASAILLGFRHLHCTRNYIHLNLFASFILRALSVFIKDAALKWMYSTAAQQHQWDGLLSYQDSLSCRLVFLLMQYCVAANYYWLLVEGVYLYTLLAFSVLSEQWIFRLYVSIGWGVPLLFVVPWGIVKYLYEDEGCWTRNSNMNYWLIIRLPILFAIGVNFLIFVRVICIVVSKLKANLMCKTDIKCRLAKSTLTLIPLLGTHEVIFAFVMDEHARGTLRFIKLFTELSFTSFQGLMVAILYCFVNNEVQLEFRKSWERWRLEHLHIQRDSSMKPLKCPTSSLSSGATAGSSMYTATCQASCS
Chain of human GLP1R (P43220 24-463): as above

Row | Compound | Emax [1, 3] [%] | EC50 [1, 4] [nM] | EC50 [2] [nM] | Emax [2] [%] | Emax [1] [%]
1 | C[C@]1(c2ccc(Cl)cc2F)Oc2cccc(C3CCN(Cc4nc(C(F)(F)F)c(/C=C/C(=O)O)n4C[C@@H]4CCO4)CC3)c2O1 [Compound C-8, (E)-3-(2-((4-((S)-2-(4-chloro-2-fluorophenyl)-2-methylbenzo[d][1,3]dioxol-4-yl)piperidin-1-yl)methyl)-1-(((S)-oxetan-2-yl)methyl)-4-(trifluoromethyl)-1H-imidazol-5-yl)acrylic acid] | 108 | 0.0606 | > 30000 | 9.5 | 
2 | Cc1c(-c2cccc(C(=O)O)c2)nc(CN2CCC(c3cccc4c3O[C@@](C)(c3ccc(Cl)cc3F)O4)CC2)n1C[C@@H]1CCO1 [Compound C-10, 3-(2-((4-((S)-2-(4-chloro-2-fluorophenyl)-2-methylbenzo[d][1,3]dioxol-4-yl)piperidin-1-yl)methyl)-5-methyl-1-(((S)-oxetan-2-yl)methyl)-1H-imidazol-4-yl)benzoic acid] | 107 | 0.898 | > 30000 | 2 | 
3 | Cc1c(-c2nc(=O)o[nH]2)nc(CN2CCC(c3cccc4c3O[C@@](C)(c3ccc(Cl)cc3F)O4)CC2)n1C[C@@H]1CCO1 [Compound C-21, 3-(2-((4-((S)-2-(4-chloro-2-fluorophenyl)-2-methylbenzo[d][1,3]dioxol-4-yl)piperidin-1-yl)methyl)-5-methyl-1-(((S)-oxetan-2-yl)methyl)-1H-imidazol-4-yl)-1,2,4-oxadiazol-5(2H)-one] | 104 | 0.297 | 1790 | 13 | 
4 | Cc1nc(CN2CCC(c3cccc4c3O[C@@](C)(c3ccc(Cl)cc3F)O4)CC2)n(C[C@@H]2CCO2)c1-c1nc(=O)o[nH]1 [Compound C-20, 3-(2-((4-((S)-2-(4-chloro-2-fluorophenyl)-2-methylbenzo[d][1,3]dioxol-4-yl)piperidin-1-yl)methyl)-4-methyl-1-(((S)-oxetan-2-yl)methyl)-1H-imidazol-5-yl)-1,2,4-oxadiazol-5(2H)-one] |  | 0.202 | > 30000 | 6 | 104
5 | C[C@]1(c2ccc(Cl)cc2F)Oc2cccc(C3CCN(Cc4nc(C(F)(F)F)c(-c5nnn[nH]5)n4C[C@@H]4CCO4)CC3)c2O1 [Compound C-24, 4-((S)-2-(4-chloro-2-fluorophenyl)-2-methylbenzo[d][1,3]dioxol-4-yl)-1-((1-(((S)-oxetan-2-yl)methyl)-5-(1H-tetrazol-5-yl)-4-(trifluoromethyl)-1H-imidazol-2-yl)methyl)piperidine] |  | 0.784 | > 30000 | -3 | 112
